This data set concerns cardiomyocytes derived from neonatal mouse ventricles. Put plainly: Reprogramming of cardiomyocytes into iPS cells (selective culture in mouse ES medium). It counts as cell-based. To be noted: ES medium containing both 10 μM SB-431542 and 100 nM siRNA Cx43 (combination); after about two weeks; cardiomyocytes seeded at 2×10^5 cells. As for the experimental part: Two-day-old neonatal C57BL/6 or C57BL/6-Tg (CAG-EGFP) mouse hearts including ventricles were minced into approximately 2-mm cubes with dissecting scissors by a conventional method. They were treated with 0.2% collagenase (type II; Worthington Biochemical Corp. U.S.; dissolved in PBS) to dissociate cardiomyocytes. The dissociated cardiomyocytes were centrifuged, and incubated for 45 minutes in DMEM containing 10% FBS at 37° C. with 5% CO2. After the incubation, the supernatant was further incubated under the same conditions. This process was repeated four times. Thus, fibroblasts were removed, and the cardiomyocytes were isolated,
The cardiomyocytes were seeded at 2×10^5 cells in a 6-cm dish, and cultured in the above DMEM medium. After culturing for 1 week, the medium used for culturing the cardiomyocytes was switched from the above DMEM medium to mouse ES media containing 15% FBS and also containing either a TGF-β receptor inhibitor SB-431542 (10 μM; Tocris, USA), siRNA Cx43 (100 nM), or both compounds, to select the reprogrammed cells. […]

On to `NC(=O)c1ccc(-c2nc(-c3ccc4c(c3)OCO4)c(-c3ccccn3)[nH]2)cc1` [SB-431542], for which the “iPS cell colonies obtained” value is recorded as “Two”.

Consider “siRNA Cx43: mouse Cx43 siRNA; sense 5′-CAAUUCCUCCUGCCGCAATT-3′, antisense 5′-UUGCGGCAGGAGGAAUUGTT-3′ (sense CAAUUCCUCCUGCCGCAATT; antisense UUGCGGCAGGAGGAAUUGTT; chemistry not given here)”, for which the “iPS cell colonies obtained” value was “Two”.

(Values after patent publication US8956868B2, “Induced pluripotent stem cells produced with a connexin inhibitor and a TGF-β signaling inhibitor” (LSIP, LLC, priority 2010, dated 2015).)
